The values that follow come from patent US7879795B2, “Enhancement of tigecycline potency using efflux pump inhibitors” (Mpex Pharmaceuticals, Inc., priority 2004, dated 2011).

Data set [1] concerns Citrobacter freundii 13. Description: Antibiotic MIC with fixed concentration of compound 21, Citrobacter freundii 13. The format is cell-based. How it is done:
(§1) To further characterize the clinical potential of tigecycline/EPI combinations, the microbiological activity of tigecycline in combination with compound 21 was investigated using clinical isolates of P. aeruginosa and other gram-negative bacteria. In several experiments, described below, the impact of a fixed concentration of compound 21 (2.5 μg/ml) on susceptibility to tigecycline was determined.
(§2) The impact of compound 21 on the activity of tigecycline against representative members of Enterobacteriacaea was also tested.

For data set [2], the system named is Klebsiella pneumonia 73. Description: Antibiotic MIC with fixed concentration of compound 21, Klebsiella pneumonia 73. Type of data set: cell-based. The procedure: as §1, §2
For data set [3], the system named is Enterobacter aerogenes 19. Description: Antibiotic MIC with fixed concentration of compound 21, Enterobacter aerogenes 19. The format is cell-based.
Data set [4] has as its system Enterobacter cloacae 25. Description: Antibiotic MIC with fixed concentration of compound 21, Enterobacter cloacae 25. Type of data set: cell-based.
Data set [5] has as its system Klebsiella pneumonia 79. Description: Antibiotic MIC with fixed concentration of compound 21, Klebsiella pneumonia 79. Type of data set: cell-based. How it is done:
as §1, §2

Data set [6] in a line: Rat serum pharmacokinetics after 2-hour IV infusion. Type of data set: in vivo. How it is done: Rat serum pharmacokinetics of compounds 1, 3, 7, and 21 was evaluated after 2-hour IV infusion of 1 mg/ml EPI solution in 0.9% saline. Total infused dose was 10 mg/kg. FIG. 12 depicts the serum concentrations as a function of time. A two-compartment model was used to fit the data and calculate PK parameters.

Data set [7] in a line: Tissue levels after 2-hour IV infusion in rats. Type of data set: in vivo, rat. As to conditions: for concentration at 6 h: 4 h after end of 2-hour IV infusion; for concentration at 6 h / concentration at 2 h: 10 mg/kg; for 2 h/4 h Ratio: Table 7, 2 h and 6 h; for concentration at 2 h: end of 2-hour IV infusion. The procedure: Levels of EPIs in various tissues were evaluated after 2-hour IV infusion in rats. The rats received 10 mg/kg IV infusion through FVC. Animals were divided into 2 groups: group 1 was sacrificed immediately after the end of infusion and group 2, 2 h or 4 h after the end of infusion. Tissues from each animal were collected, homogenized and compounds were extracted. Tissues were mixed with saline at 1:1 ratio (v/w) in 12×75 mm polypropylene round bottom tubes. The mixtures were homogenized with a Polytron homogenizer (on ice, 3×10-15 seconds with 30 seconds intervals at the setting of 7). 50 μl of homogenized tissue were immediately transferred to an Eppendorf tube and 2-volumes of 4% TCA were added. After vortexing for 30 seconds, the tubes were centrifuged in a microfuge at top speed (13.2 k rpm) for 5 minutes. The supernatant was collected, and 45 μl of the supernatant was transferred to a glass LC/MS/MS vial (Kimble, 11 mm, 1.5 ml) for analysis, which allowed determination of tissue levels of EPIs at the end of the infusion and 2 h or 4 h later.

In data set [8] the test system is PAM1723. Particulars: for stability in rat serum: summary of Table 4, in words. The procedure:
Stability in rat and human serum was also evaluated using a bioassay. 320 μg/ml of the test compound was treated with 50% serum for 4 hours.
Bioassays as described in Example 62 and Example 65 were used to evaluate the stability of various compounds in serum and rabbit kidney homogenates.

Data set [9] deals with strain PAM1723 of P. aeruginosa. The format is in vitro ADME. The procedure: Stability of compounds was also evaluated using a bioassay. The test compound at 320 μg/ml was treated with rabbit kidney supernatant for 0, 0.5, 1 and 2 hours.

Like-named read-outs stand apart in the source and are kept apart here.

Regarding `CC[C@H]1OC(=O)[C@H](C)[C@@H](O[C@H]2C[C@@](C)(OC)[C@@H](O)[C@H](C)O2)[C@H](C)[C@@H](O[C@@H]2O[C@H](C)C[C@H](N(C)C)[C@H]2O)[C@](C)(O)C[C@@H](C)CN(C)[C@H](C)[C@@H](O)[C@]1(C)O` [Azithromycin, reference compound], the Azi (MIC) in [1] (azithromycin alone) is 8 µg/mL; in [2] (azithromycin alone), 16 µg/mL; in data set [3] (azithromycin alone), 32 µg/mL; in data set [4] (azithromycin alone), 16 µg/mL; in data set [5] (azithromycin alone) it was 64 µg/mL.

Broadly, the clearance is the volume of plasma or blood freed of the substance per unit of time. Take `NCCC[C@H](N)C(=O)N[C@H](CCc1ccccc1)C(=O)Nc1ccc2ncccc2c1` [Compound 7, 2-(S),5-Diamino-pentanoic acid [3-phenyl-1-(R)-(quinolin-6-ylcarbamoyl)-propyl]-amide]: the “serum PK profile after 2-hour IV infusion” value in [6] (10 mg/kg, in words) is recorded as “best serum PK profile”. The clearance in data set [6] (serum, 2-hour IV infusion, total dose 10 mg/kg, two-compartment model) is 6.5 mL/min/kg. In [7] (rat kidney), the concentration at 6 h is 960 ng/mL, the “2 h/4 h Ratio” value is 57.37 and the concentration at 2 h was 55400 ng/mL. Moreover, in data set [7] (rat liver), the concentration at 6 h worked out at 270 ng/mL, the “2 h/4 h Ratio” value is recorded as 29.85 and the concentration at 2 h was 7960 ng/mL. Also, in data set [7] (rat lung), the concentration at 6 h was determined as 3170 ng/mL, the “2 h/4 h Ratio” value worked out at 4.11 and the concentration at 2 h came to 13000 ng/mL. In data set [7] (rat, in words), the “tissue levels and clearance from tissues after 2-hour IV infusion” value is listed as “cleared from tissues relatively fast”.

`NCCC[C@H](N)C(=O)N[C@@H](CCc1ccc(F)cc1)C(=O)Nc1cnc2ccccc2c1` [Compound 9, 2-(S),5-Diamino-pentanoic acid [3-(4-fluoro-phenyl)-1-(S)-(quinolin-3-ylcarbamoyl)-propyl]amide]: the “stability in rat serum” value in data set [8] is on record as “unstable in rat serum”.

On to `CN(C(=O)[C@@H](CCc1ccccc1)NC(=O)[C@@H](N)CCCN)c1cnc2ccccc2c1` [Compound 18, 2-(S),5-Diamino-pentanoic acid [1-(R)-(methyl-quinolin-3-yl-carbamoyl)-3-phenyl-propyl]amide], for which the “stability in rat serum” value in [8] is “unstable in rat serum”.

In the case of `NCCC[C@H](N)C(=O)N[C@H](CCc1ccccc1)C(=O)Nc1cnc2ccccc2n1` [Compound 19, 2-(S),5-Diamino-pentanoic acid [3-phenyl-1-(R)-(quinoxalin-2-ylcarbamoyl)-propyl]-amide], the “stability in rat serum” value in [8] was “unstable in rat serum”.

With `NCCC[C@H](N)C(=O)N[C@H](CCc1ccccc1)C(=O)Nc1cccc(-c2ccccc2)c1` [Compound 26], in data set [8] (Table 4, human serum), the “EPI MPC8 after 4 hours at 37° C., Frosen Human serum” value worked out at 2.5 µg/mL. Besides, in data set [8] (Table 4, rat serum), the “EPI MPC8 after 4 hours at 37° C., Frozen Rat serum” value stood at 2.5 µg/mL. Besides, the “EPI MPC8 after 4 hours at 37° C., Saline” value in data set [8] (Table 4, saline) was determined as 2.5 µg/mL. Further, the “EPI MPC8 after incubation (h) with rabbit kidney supernatant at 37° C.” value in data set [9] (0 h) is 80 µg/mL; in data set [9] (0.5 h) it was more than 80 µg/mL; in data set [9] (1 h), more than 80 µg/mL; in data set [9] (2 h), more than 80 µg/mL. Also, in data set [9] (saline control of rabbit kidney supernatant bioassay, 37° C.), the “EPI MPC8, Saline (2 hours)” value was 2.5 µg/mL.

With `NCCC[C@H](N)C(=O)N[C@H](CCc1ccccc1)C(=O)Nc1ccc2cccnc2c1` [Compound 28, 2-(S),5-Diamino-pentanoic acid [3-phenyl-1-(R)-(quinolin-7-ylcarbamoyl)-propyl]-amide], the “stability in rat serum” value in data set [8] is listed as “unstable in rat serum”.

`NCCC[C@H](N)C(=O)N[C@H](CCc1ccccc1)C(=O)Nc1ncc(Cl)cc1Cl` [Compound 36, 2-(S),5-Diamino-pentanoic acid [1-(R)-(3,5-dichloro-pyridin-2-ylcarbamoyl)-3-phenyl-propyl]amide]: the “stability in rat serum” value in data set [8] is recorded as “unstable in rat serum”.

Regarding `NCCC[C@H](N)C(=O)N[C@H](CCc1ccccc1)C(=O)Nc1cc2ccccc2nn1` [Compound 39, 2-(S),5-Diamino-pentanoic acid [1-(R)-(cinnolin-3-ylcarbamoyl)-3-phenyl-propyl]-amide], the “stability in rat serum” value in [8] is on record as “unstable in rat serum”.

As for `C[C@H]1COc2c(N3CCN(C)CC3)c(F)cc3c(=O)c(C(=O)O)cn1c23` [Levofloxacin, reference compound], the Levo (MIC) in [1] (levofloxacin alone) was determined as 64 µg/mL; in data set [2] (levofloxacin alone), 64 µg/mL; in data set [3] (levofloxacin alone) it was 128 µg/mL; in data set [4] (levofloxacin alone), 2 µg/mL; in data set [5] (levofloxacin alone), 64 µg/mL.

With “L-phenylalanine-L-ornithine-α-naphtylamide [MC-207110, reference compound]”, in [8] (Table 3, 50% rat serum), the “EPI MPC8 after 4 hours at 37° C., Frozen Rat serum” value was more than 80.
